One data set can be described thus: in vitro. The data set is classed as in vitro ADME. The settings on record: 2 µM, 2 h, 37 °C, basolateral to apical. The protocol: Cells were kept at 37 °C in a humidified 5% CO2 atmosphere. Before the permeation assay was run, the culture medium was replaced by an FCS-free HEPES carbonate transport buffer (pH 7.2). For assessment of monolayer integrity, the transepithelial electrical resistance was measured. Test compounds were pre-dissolved in DMSO and added either to the apical or basolateral compartment at a final concentration of 2 µM. Before and after 2 h incubation at 37 °C, samples were taken from both compartments. Analysis of compound content was conducted after precipitation with methanol by LC/MS/MS analysis. Reference compounds were analyzed in parallel as assay control. Permeability (Papp) was calculated in the apical to basolateral (A → B) and basolateral to apical (B → A) directions. The efflux ratio basolateral (B) to apical (A) was calculated by dividing Papp B–A by Papp A–B.

The target of the next data set is T1, PRC2/EZH2Y641N (Homo sapiens, UniProt Q15910, Y641N).
T1 construct: Synthetic cDNA encoding N-terminal 6His-tagged full length EZH2^Y641N; 6His (N); made in house; host or cells: Sf9 insect cells (baculovirus co-infection)
As to the kind of experiment: Kinetic probe competition assay (kPCA), TR-FRET. The data set is classed as binding. The settings on record: calculated. An excerpt: (§1) Biotinylated PRC2 complexes and the fluorescent probe used in TR-FRET assays were generated as described in the supplementary methods section.

For data set [1], the target named is T2, PRC2/EZH2+/+ (Homo sapiens, UniProt Q15910).
T2 construct: purchased Active Motif
Briefly: Kinetic probe competition assay (kPCA), TR-FRET. The data set is classed as binding. As to the method:
as §1
For measurements at 25, 30 and 37 °C, the temperature control functionality of the instrument was used.
TR-FRET kPCA traces were exported via Microsoft Excel to GraphPad Prism, where non-specific signals were subtracted and kinetic association competition traces were fitted to the Motulsky–Mahan model “kinetics of competitive binding” to obtain kon (k3), koff (k4) and KD parameters.

Data set [2] has as its system H3K27me3 mark in MDA-MB-231 cells. Briefly: High content analysis (HCA) of cellular H3K27me3 mark, washout format. As to conditions: for IC50: H3K27 methylation HCA, read-out: Mean IC50. The data set is classed as cell-based. As to the method: In the low- and high-signal control wells, test compounds were replaced by 10 µM of EZH2 inhibitor (equal to unlabeled probe from ePCA and kPCA) or DMSO, respectively. […] After fixation, the cells were washed with PBS and incubated with 1% BSA blocking solution at RT for 1 h. Blocking solution was discarded, primary monoclonal antibody rabbit Tri-methyl-histone H3K27 (C36B11, Cell signaling) diluted 1:200 in blocking solution was added and incubated overnight at 4 °C. […] Afterwards, cells were washed three times with PBS and incubated at 4 °C until measuring. Fluorescence signals were captured by an Opera Phenix™ High Content Screening (HCA) system (Perkin Elmer) by 10× magnification. […] Microscopy images were initially visualized and preprocessed with MetaXpress High Content Image Acquisition & Analysis Software (Molecular Devices) as previously described. Raw data import, normalization, quality control and fitting curves for IC50 determination of tested compounds were done with Genedata Screener® for high-content screening. Wells with no recognizable signals were masked and the average intensity of the trimethylation signal was normalized to the DMSO control (0%).

Data set [3] concerns the target T2, PRC2/EZH2+/+. Briefly: Equilibrium binding thermodynamics (van't Hoff analysis of ePCA/kPCA at 5-37 °C). As to conditions: ePCA at 5-37 °C, wild type EZH2. The protocol:
For thermodynamic analysis of the binding to EZH2+/+ the probe characterization, equilibrium and kinetic probe competition assays described above (previously conducted at 25 °C) were performed at 5, 15, 30 and 37 °C. […] For measurements at 25, 30 and 37 °C, the temperature control functionality of the instrument was used.
Equilibrium and kinetic binding constants obtained at various temperatures were used to determine the thermodynamic parameters by van’t Hoff and Eyring analysis, as described elsewhere for SPR and radioligand binding experiments[46],[69]. For the van’t Hoff thermodynamic analysis, changes in entropy ΔS° and enthalpy ΔH° were estimated by linear regression using the van’t Hoff equation. lnKA=ΔS^∘/R-ΔH^∘/RT,
Changes in Gibb’s free energy ΔG° were calculated according to. ΔG^∘T=ΔH^∘-T×ΔS^∘
Additionally, the possible temperature dependence of the thermodynamic parameters was considered using the integrated form of the van’t Hoff equation[47] for nonlinear regression to yield the changes in entropy, enthalpy, and heat capacity ΔCp: ln KA=-ΔH^∘T^∘/RT+ΔS^∘T^∘/R+ΔCp/R[T-T^∘/T-lnT/T^∘],

The test system of a further data set is KARPAS-422 cells. Briefly: Cellular proliferation assay (AlamarBlue, 144 h). The data set is classed as cell-based. As to conditions: KARPAS-422 cells, 6-day (144 h), AlamarBlue; read-out: KARPAS (6-day) Anti-proliferation IC50. As to the method:
Cell viability was determined by means of the AlamarBlue® reagent (Thermo Fisher Scientific) following instructions from the manufacturer. […] Anti-proliferative IC50s were calculated by fitting the normalized AlamarBlue® fluorescence values to a 4-parameter logistic equation using the Electronic Notebook (ELN) software from IDBS.

In a further data set the target is T3, PRC2/EZH1 (Homo sapiens, UniProt Q92800).
T3 construct: N-terminal 6His-tagged full length EZH2^Y641N, EZH2^Y111L, EZH2^Y111D, EZH2^Y641N, Y661DEZH2, EZH1; 6His (N); made in house; host or cells: Sf9 insect cells (baculovirus co-infection)
As to the kind of experiment: Scintillation proximity assay (SPA) of H3K27 methylation. The data set is classed as biochemical. As to the method: Assay-ready plates containing 50 nl of compound dilutions and DMSO controls were filled with 2.5 µL enzyme solution and pre-incubated for 15 min. […] Experiments were also performed without pre-incubation of enzyme and compounds. In this case, the substrate solution was added before enzyme. The reaction was stopped using 1.6 µg/µl streptavidin beads (Perkin Elmer) and 700 µM of SAM (Perkin Elmer). The plates were sealed with transparent foil.
For equilibrium binding competition (ePCA) and SPA enzyme inhibition assays, raw data import, quality control, normalization, and curve fitting to a 4-parameter logistic equation for IC50 determination were performed using the Genedata Screener® software (Genedata AG). ePCA Ki values were either calculated using the Cheng-Prussof equation[68] or with the GraphPad Prism model “One-site—Fit Ki”.

Each structure is given as a SMILES string. Like-named read-outs stand apart in the source and are kept apart here.

With `CC[C@H](C)n1cc(C)c2c(C(=O)NCc3c(C)cc(C)[nH]c3=O)cc(-c3ccc(N4CCNCC4)nc3)cc21` [Compound 4, GSK126], the “PK Caco-2 Flux Papp B-A (mean)” value in the data set “in vitro” is 9.838 ×10⁻⁶ cm/s. Besides, the “Calculated RT” value at PRC2/EZH2Y641N (EZH2Y641N (+ H3K27me3)) is recorded as 0.22 h; at PRC2/EZH2Y641N (EZH2Y641N (- H3K27me3)), 0.0666 h; on PRC2/EZH2+/+ [1] (EZH2+/+ (+ H3K27me3)) it was 0.44 h; on PRC2/EZH2+/+ [1] (EZH2+/+ (- H3K27me3)), 0.06 h. Further, the “RT (Calculated)” value is 0.0145 h on PRC2/EZH2+/+ [1] (EZH2+/+ (- H3K27me3), 15 °C); 0.031 h on PRC2/EZH2+/+ [1] (EZH2+/+ (- H3K27me3), 30 °C); 0.0092 h at PRC2/EZH2+/+ [1] (EZH2+/+ (- H3K27me3), 37 °C). The IC50 in data set [2] (incubation time 0.5 h, washout time 71.5 h) was 5800 nM; in data set [2] (incubation time 1 h, washout time 71 h), 2900 nM; in data set [2] (incubation time 2 h, washout time 70 h) it was 2400 nM; in data set [2] (incubation time 4 h, washout time 68 h) it was 1800 nM; in data set [2] (incubation time 24 h, washout time 48 h), 1400 nM; in data set [2] (incubation time 48 h, washout time 24 h), 700 nM. The IC50 turned out to be 310 nM in data set [2] (incubation time 72 h, washout time 0 h); 280 nM in the data set with KARPAS-422 cells; 1.1e-06 M on PRC2/EZH1 (0' enzyme:inhibitor pre-incubation, read-out: SPA Mean IC50 (M) - 0' enzyme:inhibitor pre-incubation EZH1); 4.4e-07 M on PRC2/EZH1 (15' enzyme:inhibitor pre-incubation, read-out: SPA Mean IC50 (M) - 15' enzyme:inhibitor pre-incubation EZH1); 1e-06 M at PRC2/EZH1 (60' enzyme:inhibitor pre-incubation, read-out: SPA Mean IC50 (M) - 60' enzyme:inhibitor pre-incubation EZH1). In addition, the “AUC (a.u.)” value in data set [2] (HCA H3K27 methylation washout pIC50 AUC over all incubation/washout times) is given as 81.2 a.u. The “binding driving force, polynomial van't Hoff analysis” value at PRC2/EZH2+/+ [3] is “entropy-driven”.

Source of the values: article PMC10799085, “A miniaturized mode-of-action profiling platform enables high throughput characterization of the molecular and cellular dynamics of EZH2 inhibition” (Scientific Reports, 2024).
